The values that follow come from patent publication US7419972B2, “2-substituted estra-1,3,5(10)-trien-17-ones as inhibitors of 17β-hydroxy steroid dehydrogenase type 1” (Schering AG, priority 2004, dated 2008).

One assay has as its target T1, human 17β-hydroxy steroid dehydrogenase type 1 (Homo sapiens, UniProt P14061).
T1 construct: made in house; host or cells: E. coli (suspension of bacterial pellets, enzyme not purified)
T1 sequence (P14061 1-328): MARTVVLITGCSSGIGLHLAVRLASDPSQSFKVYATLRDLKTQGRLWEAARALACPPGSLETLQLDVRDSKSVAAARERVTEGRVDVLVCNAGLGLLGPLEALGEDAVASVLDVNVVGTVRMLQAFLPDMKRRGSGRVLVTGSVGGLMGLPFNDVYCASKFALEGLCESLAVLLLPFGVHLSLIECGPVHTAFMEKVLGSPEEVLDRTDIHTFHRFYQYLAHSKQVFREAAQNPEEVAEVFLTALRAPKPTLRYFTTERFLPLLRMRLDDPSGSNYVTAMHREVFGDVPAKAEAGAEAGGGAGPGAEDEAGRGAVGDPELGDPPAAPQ
Nature of the assay: Inhibition of the activity of human 17β-hydroxy steroid dehydrogenase type 1 (3H-labeled substrate conversion, HPLC). It is filed as biochemical.
Settings: not given
From the text: The test method is well described in the literature [Adamski, J., Sierralta, W. D., Jungblut, P. W., Acta Endocrinol (Copenh.) 121(2) (1989), 161-7] and is depicted below.
Human 17β-hydroxy steroid dehydrogenases (17β-HSDs) are over-expressed in E. coli bacteria as His-Tag proteins or as GST-fusion proteins. The suspensions of the bacterial pellets in isotonic common salt solution are used for the determination of enzyme activities of the 17β-HSDs or for the study of their influence by potential inhibitors (estrogen derivatives).
The measurements are made in double determination and, if necessary, at various concentrations of potential inhibitors (e.g., in determining the IC50 values). In addition to the target enzyme 17β-HSD1, other steroid-metabolizing enzymes are included in the test to study cross reactivities of estrogen derivatives.
The incubation of the samples is carried out at 37° C. in a water bath while being shaken, such that in the control (without substances to be tested), a conversion of about 30% is achieved.
The separation of radiolabeled substrate and product is then carried out, after extraction with 1 ml of reversed phase-(RP-18)-cartridges, by means of HPLC on an RP18 column with acetonitrile:water 1:1 (v/v) as a mobile phase. The radioactivity is detected with the aid of a flow-scintillation counter.
The evaluation of the substrate conversion with and without substances to be tested is performed by the integration of the substrate and product peaks. The conversion of the control normalized to 100% conversion.
`C[C@]12CC[C@@H]3c4cc(Cl)c(O)cc4CC[C@H]3[C@@H]1C[C@H](F)C2=O` [Compound 4, 2-Chloro-16β-fluoro-3-hydroxy-estra-1,3,5(10)-trien-17-one] gave an IC50 of 35 nM.

The compound `C[C@]12CC[C@@H]3c4cc(Cl)c(O)cc4CC[C@H]3[C@@H]1C[C@@H](F)C2=O` [Compound 3, 2-Chloro-16α-fluoro-3-hydroxy-estra-1,3,5(10)-trien-17-one] showed an IC50 of 101 nM.

Compound `C[C@]12CC[C@@H]3c4cc(CCc5ccccc5)c(O)cc4CC[C@H]3[C@@H]1CCC2=O` [Compound 21, 3-Hydroxy-2-(2′-phenyl-ethyl)estra-1,3,5(10)-trien-17-one] registered an IC50 of 47 nM.

The same assay, now with this note: enzyme over-expressed in E. coli, bacterial suspension, 37° C.; read-out: 17βHSD1 IC50.
As for `CCc1cc2c(cc1O)CC[C@@H]1[C@@H]2CC[C@]2(C)C(=O)CC[C@@H]12` [Compound 23, 2-Ethyl-3-hydroxy-estra-1,3,5(10)-trien-17-one], the IC50 stood at 89 nM.

As for `C[C@]12CC[C@@H]3c4cc(Cl)c(O)cc4CC[C@H]3[C@@H]1CCC2=O` [Compound 11, 2-Chloro-3-hydroxy-estra-1,3,5(10)-trien-17-one], the half-inhibitory concentration (IC50) was determined as 140 nM.

Consider `CC[C@]12CC[C@@H]3c4cc(Cl)c(O)cc4CC[C@H]3[C@@H]1CCC2=O` [Compound 1, 2-Chloro-3-hydroxy-18a-homoestra-1,3,5(10)-trien-17-one], for which the IC50 was found to be 121 nM.

As to `C[C@]12CC[C@@H]3c4cc(C#N)c(O)cc4CC[C@H]3[C@@H]1CCC2=O` [Compound 12, 2-Cyano-3-hydroxy-estra-1,3,5(10)-trien-17-one], the half-inhibitory concentration (IC50) came out at 148 nM.

For `C[C@]12CC[C@@H]3c4cc(C#Cc5ccccc5)c(O)cc4CC[C@H]3[C@@H]1CCC2=O` [Compound 19, 3-Hydroxy-2-phenylethinyl-estra-1,3,5(10)-trien-17-one], the half-maximal inhibitory concentration (IC50) stood at 56 nM.

What is called IC50 is the point on the concentration scale where inhibition reaches its midpoint.
